Results published in patent publication US20200179369A1, “TREATMENT OF DIABETIC NEPHROPATHY” (TAKEDA GMBH, priority 2015, published 2020).

What was measured:
[1] = test system: connective tissue growth factor (CTGF) mRNA; experiment: TGF-β-induced mRNA expression of connective tissue growth factor (CTGF) in human mesangial cells; assay type: cell-based; conditions: 0.001-10 μM with forskolin 1 μM and TGF-β 3 ng/mL, 6 h
Procedure: (§1) Human mesangial cells were purchased from DS Pharma Biomedical (US). Compound A was obtained from Takeda GmbH, Konstanz, Germany. Forskolin and dimethyl sulfoxide (DMSO) were purchased from Wako Pure Chemical Industries, Ltd (Japan). Recombinant human TGF-β was purchased from R&D systems (USA).
(§2) On day 0, human mesangial cells were seeded at a cell density of 2×10^5 cells/well in CSC complete medium (Cell Systems, USA) on type 1 collagen-coated 24-well plate (AGC TECHNO GLASS Co. Ltd., Japan) in an atmosphere of 95% air and 5% CO2 at 37° C. On day 1, the cells were serum starved with CMC medium which is not containing serum and growth factors. On day 2, Compound A at final concentrations of 0.001, 0.01, 0.1, 1 and 10 μM or DMSO (control) was added to the culture medium. […] For the measurement of mRNA levels of type 1 collagen α1 chain and fibronectin, total RNA isolated at 24 hours after forskolin/TGF-β stimulation was used. mRNA expression levels were measured by quantitative real-time RT-PCR methods with TaqMan gene expression master mix and ABI PRISM 9700 (Life Technologies, USA) with target mRNA specific primer and probe sets [Human connective tissue growth factor (Hs1026927_g1); Human plasminogen activator inhibitor-1 (Hs00167155_m1); Human type 1 collagenal chain (Hs00164004_m1); Human fibronectin (HS00365052_m1); Humanglyceraldehyde 3-phosphate dehydrogenase (HS2758991_g1)]. […]

[2] = test system: fibronectin mRNA; experiment: TGF-β-induced mRNA expression of fibronectin in human mesangial cells; assay type: cell-based; conditions: in the presence of forskolin 1 μM, TGF-β 3 ng/mL, 24 h
Procedure: as §1, §2

[3] = test system: female db/db mice; experiment: HbA1c, 4 weeks treatment in female db/db mice; assay type: in vivo; conditions: 28 days, vehicle 9.06%
Procedure: Female db/db mice were purchased from Taconic (Lille Skensved, Denmark) at 5-6 weeks of age and were maintained under standard conditions (5 animals/cage; 12 h light-dark cycle; room temperature of 22±2° C.; relative humidity of 60±15%). All mice had free access to water and standard chow (Provimi Kliba, Kaiseraugst, Switzerland). Four days upon arrival animals were randomized based on body weight and levels of glycated hemoglobin 1c (HbA1c). At 7 weeks of age, animals were treated daily by oral gavage with vehicle (4% methylcellulose) or with Compound A (composed in aqueous 4% methylcellulose) using doses of 1, 3 and 10 mg/kg s.i.d. (doses related to free base). The required dose was applied in a volume of 10 ml/kg body weight. Each dose group consisted of 10 animals. At the end of the treatment period plasma samples were isolated for determination of HbA1c levels. All experimental procedures were conducted according to the German Animal Protection Law.
HbA1c was analyzed from tail-tip-blood (HbA1c determination before treatment) as well as from blood collected from the retro-orbital venous plexus (HbA1c determination after 4 weeks treatment) using the Hemoglobin A1c Test (Siemens, Bad Nauheim, Germany).
Values are presented as means ±SEM. Statistical differences were determined using one-way-ANOVA followed by a post-hoc analysis with Dunnet's correction (GraphPad Prism).
Definition of significance: n.s.=not significant (p>0.05) • *, **, ***=p<0.05, <0.01, <0.001

[4] = test system: uninephrectomized db/db mice; experiment: Diabetic nephropathy in uninephrectomized db/db mice, 8 week treatment starting 12 weeks after the uninephrectomy; assay type: in vivo; conditions: 8 weeks starting 12 weeks after uninephrectomy
Procedure: The experimental protocol is similar to the experimental protocol described above with the exception that the 8 week treatment with Compound A or irbesartan was started not already at 4 weeks after the uninephrectomy, but only 12 weeks after the uninephrectomy (i.e. when the increase of urinary albumin/creatinine ratio (UACR) is already in a much more advanced stage). Roflumilast was not used as a comparator in this experiment.
Compound A (1, 3 and 10 mg/kg, QD) and irbesartan (50 and 100 mg/kg, QD) were suspended in 0.5% methyl cellulose solution and orally administered to mice for 8 weeks starting 12 weeks after the uninephrectomy.
For evaluation of the effects of Compound A, statistical differences between vehicle- and Compound A treated groups were analyzed with one-tailed Williams' test for GHB, PG and BW and one-tailed Shirley-Williams' test for UACR. For irbesartan, statistical differences between vehicle- and irbesartan treated groups were analyzed with one-tailed Williams' test for UACR, GHb, PG and BW. The P-values less than 0.025 were considered statistically significant in one-tailed Williams' test or one-tailed Shirley-Williams' test.

[5] = test system: type 1 collagen α1 chain mRNA; experiment: TGF-β-induced mRNA expression of type 1 collagen α1 chain in human mesangial cells; assay type: cell-based; conditions: in the presence of forskolin 1 μM, TGF-β 3 ng/mL, 24 h
Procedure: as §1, §2

[6] = test system: plasminogen activator inhibitor-1 (PAI-1) mRNA; experiment: TGF-β-induced mRNA expression of plasminogen activator inhibitor-1 (PAI-1) in human mesangial cells; assay type: cell-based; conditions: 0.001-10 μM with forskolin 1 μM and TGF-β 3 ng/mL, 6 h
Procedure: as §1, §2

CCOc1cc2c(cc1OC)C(c1ccc(=O)n(C)c1)=N[C@@H]1CC[C@@H](O)C[C@H]21 [Compound A, 5-((2R,4aR,10bR)-9-Ethoxy-2-hydroxy-8-methoxy-1,2,3,4,4a,10b-hexahydro-phenanthridin-6-yl)1-methyl-1H-pyridin-2-one]
effect on TGF-β-induced mRNA expression of CTGF [1]: further suppressed by the treatment with Compound A in a concentration-dependent manner | concentration at which the inhibitory effect on mRNA expression of fibronectin was further enhanced [2]: ≥ 0.1 µM | mean HbA1c ([3]; 1 mg/kg oral s.i.d.): 7.27% | mean HbA1c ([3]; 3 mg/kg oral s.i.d.): 7.06% | mean HbA1c ([3]; 10 mg/kg oral s.i.d.): 6.16% | effect on urinary albumin/creatinine ratio (UACR) ([4]; 1 mg/kg QD oral): suppressed the increase of UACR | effect on urinary albumin/creatinine ratio (UACR) ([4]; 3 mg/kg QD oral): reduced the UACR in the 3 mg/kg and 10 mg/kg group below the value at the beginning of the 8 weeks treatment period | effect on glucose plasma levels (PG) ([4]; 10 mg/kg QD oral): statistical significant effect | effect on glycosylated hemoglobin (GHb) ([4]; 10 mg/kg QD oral): statistical significant effect | effect on urinary albumin/creatinine ratio (UACR) ([4]; 10 mg/kg QD oral): reduced the UACR in the 3 mg/kg and 10 mg/kg group below the value at the beginning of the 8 weeks treatment period | effect on body weight (BW) ([4]; 1, 3 and 10 mg/kg QD oral): Neither Compound A nor Irbesartan affected the body weight | effect on glucose plasma levels (PG) ([4]; 1, 3 and 10 mg/kg QD oral): reduced GHb and PG in a dose-dependant manner | effect on glycosylated hemoglobin (GHb) ([4]; 1, 3 and 10 mg/kg QD oral): reduced GHb and PG in a dose-dependant manner | concentration at which the inhibitory effect on mRNA expression of type 1 collagen α1 chain was further enhanced [5]: ≥ 0.1 µM | effect on TGF-β-induced mRNA expression of PAI-1 [6]: further suppressed by the treatment with Compound A in a concentration-dependent manner
